Target: human PAD4 (Homo sapiens (Human), UniProt Q9UM07)
Assay: In Vitro PAD4 BAEE Biochemical Assay
Details: geometric mean of multiple experiments
Outline: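 Recombinant human PAD4 (His-SUMO tag removed, E. coli-expressed), 5 nM, preincubated with compound and 2 mM CaCl2 30 min at 25 °C in MOPS pH 7.6 with DTT; 3 mM BAEE added for 2 h at 25 °C, EDTA stop. Released ammonia detected by o-phthalaldehyde/DTT fluorescence (ex 405, em 535 nm).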

[1] = human PAD4, BAEE substrate, 5 nM PAD4, 2 mM calcium chloride, 3 mM BAEE
[2] = recombinant PAD4 5 nM, 2 mM calcium chloride, 3 mM BAEE substrate

Chain of human PAD4 (Q9UM07 2-663): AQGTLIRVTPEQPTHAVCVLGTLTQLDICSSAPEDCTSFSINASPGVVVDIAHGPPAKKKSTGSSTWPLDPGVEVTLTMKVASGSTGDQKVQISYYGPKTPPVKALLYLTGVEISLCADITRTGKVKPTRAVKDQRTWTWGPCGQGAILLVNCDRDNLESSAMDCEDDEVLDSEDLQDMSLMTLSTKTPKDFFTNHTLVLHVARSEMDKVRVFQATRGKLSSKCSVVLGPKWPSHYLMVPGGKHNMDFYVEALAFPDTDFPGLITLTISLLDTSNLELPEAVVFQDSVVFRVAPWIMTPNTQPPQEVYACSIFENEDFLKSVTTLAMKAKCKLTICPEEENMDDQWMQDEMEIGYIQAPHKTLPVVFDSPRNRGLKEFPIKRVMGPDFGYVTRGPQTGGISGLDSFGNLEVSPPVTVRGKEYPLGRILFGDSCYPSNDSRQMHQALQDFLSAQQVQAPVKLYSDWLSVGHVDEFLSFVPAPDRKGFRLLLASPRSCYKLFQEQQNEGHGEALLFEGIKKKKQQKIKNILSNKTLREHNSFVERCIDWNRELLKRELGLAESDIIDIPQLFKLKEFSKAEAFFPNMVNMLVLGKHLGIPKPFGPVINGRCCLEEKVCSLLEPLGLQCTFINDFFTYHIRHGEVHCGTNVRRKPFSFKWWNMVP

Row | Structure (SMILES) | IC50 [1] [nM] | IC50 [2] [nM]
1 | COc1cc(C(=O)N2C[C@H](N)[C@@H]3CC[C@H]2C3)cc2nc(-c3cc4ccc([C@@H](C)NC(=O)c5ccccc5)nc4n3CC3CC3)n(C)c12 [Example 222, N-((R)-1-(2-(5-((1S,4R,5R)-4-amino-2-azabicyclo[3.2.1]octane-2-carbonyl)-7-methoxy-1-methyl-1H-benzo[d]imidazol-2-yl)-1-(cyclopropylmethyl)-1H-pyrrolo[2,3-b]pyridin-6-yl)ethyl)benzamide] | 53.5 | 
2 | COc1cc(C(=O)N2C[C@H](N)[C@@H]3CC[C@H]2C3)cc2nc(-c3cc4ccc([C@@H](C)NC(=O)C56CC(F)(C5)C6)nc4n3CC3CC3)n(C)c12 [Example 223, N-[(1R)-1-[2-[5-[(1S,4R,5R)-4-amino-2-azabicyclo[3.2.1]octane-2-carbonyl]-7-methoxy-1-methyl-benzimidazol-2-yl]-1-(cyclopropylmethyl)pyrrolo[2,3-b]pyridin-6-yl]ethyl]-3-fluorobicyclo[1.1.1]pentane-1-carboxamide] | 57.2 | 
3 | COc1cc(C(=O)N2C[C@H](N)[C@@H]3CC[C@H]2C3)cc2nc(-c3cc4ccc([C@@H](C)NC(=O)c5cnn(C(F)F)c5)nc4n3CC3CC3)n(C)c12 [Example 224, N-((R)-1-(2-(5-((1S,4R,5R)-4-amino-2-azabicycIo[3.2.1]octane-2-carbonyl)-7-methoxy-1-methyl-1H-benzo[d]imidazol-2-yl)-1-(cyclopropylmethyl)-1H-pyrrolo[2,3-b]pyridin-6-yl)ethyl)-1-(difluoromethyl)-1H-pyrazole-4-carboxamide] | 48.1 | 
4 | COc1cc(C(=O)N2C[C@H](N)[C@@H]3CC[C@H]2C3)cc2nc(-c3cc4ccc([C@@H](C)NC(=O)c5ccc(Cl)nc5)nc4n3CC3CC3)n(C)c12 [Example 225, N-((R)-1-(2-(5-((1S,4R,5R)-4-amino-2-azabicyclo[3.2.1]octane-2-carbonyl)-7-methoxy-1-methyl-1H-benzo[d]imidazol-2-yl)-1-(cyclopropylmethyl)-1H-pyrrolo[2,3-b]pyridin-6-yl)ethyl)-6-chloronicotinamide] | 48.1 | 
5 | C[C@@H](NC(=O)[C@@H]1CC1(F)F)c1ccc2cc(-c3nc4cc(C(=O)N5C[C@H](N)[C@@H]6CC[C@H]5C6)cc(F)c4n3C3CC3)n(CC3CC3)c2n1 [Example 226, (S)-N-((R)-1-(2-(5-((1S,4R,5R)-4-amino-2-azabicyclo[3.2.1]octane-2-carbonyl)-1-cyclopropyl-7-fluoro-1H-benzo[d]imidazol-2-yl)-1-(cyclopropylmethyl)-1H-pyrrolo[2,3-b]pyridin-6-yl)ethyl)-2,2-difluorocyclopropane-1-carboxamide] | 53.2 | 
6 | C[C@@H](NC(=O)[C@H]1CC1(F)F)c1ccc2cc(-c3nc4cc(C(=O)N5C[C@H](N)[C@@H]6CC[C@H]5C6)cc(F)c4n3C3CC3)n(CC3CC3)c2n1 [Example 227, (R)-N-((R)-1-(2-(5-((1S,4R,5R)-4-amino-2-azabicyclo[3.2.1]octane-2-carbonyl)-1-cyclopropyl-7-fluoro-1H-benzo[d]imidazol-2-yl)-1-(cyclopropylmethyl)-1H-pyrrolo[2,3-b]pyridin-6-yl)ethyl)-2,2-difluorocyclopropane-1-carboxamide] | 46.8 | 
7 | COc1cc(C(=O)N2[C@H]3CC[C@@H]2[C@H](N)C3)cc2nc(-c3cc4ccc([C@@H](C)NC(=O)N5CCCC5)nc4n3CC3CC3)n(C)c12 [Example 234, N-((R)-1-(2-(5-((1R,2R,4S)-2-amino-7-azabicyclo[2.2.1]heptane-7-carbonyl)-7-methoxy-1-methyl-1H-benzo[d]imidazol-2-yl)-1-(cyclopropylmethyl)-1H-pyrrolo[2,3-b]pyridin-6-yl)ethyl)pyrrolidine-1-carboxamide] | 34.3 | 
8 | COc1cc(C(=O)N2[C@H]3CC[C@@H]2[C@H](N)C3)cc2nc(-c3cc4ccc([C@@H](C)NC(=O)N(C)C)nc4n3CC3CC3)n(C)c12 [Example 235, 3-((R)-1-(2-(5-((1R,2R,4S)-2-amino-7-azabicyclo[2.2.1]heptane-7-carbonyl)-7-methoxy-1-methyl-1H-benzo[d]imidazol-2-yl)-1-(cyclopropylmethyl)-1H-pyrrolo[2,3-b]pyridin-6-yl)ethyl)-1,1-dimethylurea] | 40.2 | 
9 | COc1cc(C(=O)N2[C@H]3CC[C@@H]2[C@H](N)C3)cc2nc(-c3cc4ccc([C@@H](C)NC(=O)N5CC(O)C5)nc4n3CC3CC3)n(C)c12 [Example 236, N-((R)-1-(2-(5-((1R,2R,4S)-2-amino-7-azabicyclo[2.2.1]heptane-7-carbonyl)-7-methoxy-1-methyl-1H-benzo[d]imidazol-2-yl)-1-(cyclopropylmethyl)-1H-pyrrolo[2,3-b]pyridin-6-yl)ethyl)-3-hydroxyazetidine-1-carboxamide] | 51.3 | 
10 | COc1cc(C(=O)N2[C@H]3CC[C@@H]2[C@H](N)C3)cc2nc(-c3cc4ccc([C@@H](C)NC(=O)N5CC[C@@H](F)C5)cc4n3CC3CC3)n(C)c12 [Example 237, (R)-N-((R)-1-(2-(5-((1R,2R,4S)-2-amino-7-azabicyclo[2.2.1]heptane-7-carbonyl)-7-methoxy-1-methyl-1H-benzo[d]imidazol-2-yl)-1-(cyclopropylmethyl)-1H-indol-6-yl)ethyl)-3-fluoropyrrolidine-1-carboxamide] | 18.5 | 
11 | CCCS(=O)(=O)N[C@H](C)c1ccc2cc(-c3nc4cc(C(=O)N5[C@H]6CC[C@@H]5[C@H](N)C6)cc(OC)c4n3C)n(CC3CC3)c2n1 [Example 240, N—((R)-1-(2-(5-((1R,2R,4S)-2-amino-7-azabicyclo[2.2.1]heptane-7-carbonyl)-7-methoxy-1-methyl-1H-benzo[d]imidazol-2-yl)-1-(cyclopropylmethyl)-1H-pyrrolo[2,3-b]pyridin-6-yl)ethyl)propane-1-sulfonamide] | 65.6 | 
12 | COc1cc(C(=O)N2[C@H]3CC[C@@H]2[C@H](N)C3)cc2nc(-c3cc4ccc([C@@H](C)NS(=O)(=O)c5cnn(C)c5)nc4n3CC3CC3)n(C)c12 [Example 241, N-((R)-1-(2-(5-((1R,2R,4S)-2-amino-7-azabicyclo[2.2.1]heptane-7-carbonyl)-7-methoxy-1-methyl-1H-benzo[d]imidazol-2-yl)-1-(cyclopropylmethyl)-1H-pyrrolo[2,3-b]pyridin-6-yl)ethyl)-1-methyl-1H-pyrazole-4-sulfonamide] | 76.7 | 

Other lines, results leading:

Row | IC50 [1] [nM] | IC50 [2] [nM] | Structure (SMILES)
13 | 82.3 |  | COc1cc(C(=O)N2C[C@H](N)[C@@H]3CC[C@H]2C3)cc2nc(-c3cc4ccc([C@@H](C)NC(=O)C5CC(F)(F)C5)nc4n3CC3CC3)n(C)c12 [Example 228, N-((R)-1-(2-(5-((1S,4R,5R)-4-amino-2-azabicyclo[3.2.1]octane-2-carbonyl)-7-methoxy-1-methyl-1H-benzo[d]imidazol-2-yl)-1-(cyclopropylmethyl)-1H-pyrrolo[2,3-b]pyridin-6-yl)ethyl)-3,3-difluorocyclobutane-1-carboxamide]
14 | 83.3 |  | COc1cc(C(=O)N2C[C@H](N)[C@@H]3CC[C@H]2C3)cc2nc(-c3cc4ccc([C@@H](C)NC(=O)C56CC(Cl)(C5)C6)nc4n3CC3CC3)n(C)c12 [Example 229, N-((R)-1-(2-(5-((1S,4R,5R)-4-amino-2-azabicyclo[3.2.1]octane-2-carbonyl)-7-methoxy-1-methyl-1H-benzo[d]imidazol-2-yl)-1-(cyclopropylmethyl)-1H-pyrrolo[2,3-b]pyridin-6-yl)ethyl)-3-chlorobicyclo[1.1.1]pentane-1-carboxamide]
15 | 127 |  | COc1cc(C(=O)N2C[C@H](N)[C@@H]3CC[C@H]2C3)cc2nc(-c3cc4ccc([C@@H](C)NC(=O)C56CC(C(F)(F)F)(C5)C6)nc4n3CC3CC3)n(C)c12 [Example 230, N-((R)-1-(2-(5-((1S,4R,5R)-4-amino-2-azabicyclo[3.2.1]octane-2-carbonyl)-7-methoxy-1-methyl-1H-benzo[d]imidazol-2-yl)-1-(cyclopropylmethyl)-1H-pyrrolo[2,3-b]pyridin-6-yl)ethyl)-3-(trifluoromethyl)bicyclo[1.1.1] pentane-1-carboxamide]
16 |  | 55.9 | C[C@@H](NC(=O)c1cnn(C2CC2)c1)c1ccc2cc(-c3nc4cc(C(=O)N5C[C@H](N)[C@@H]6CC[C@H]5C6)cc(F)c4n3C3CC3)n(CC3CC3)c2n1 [Example 231, N-((R)-1-(2-(5-((1S,4R,5R)-4-amino-2-azabicyclo[3.2.1]octane-2-carbonyl)-1-cyclopropyl-7-fluoro-1H-benzo[d]imidazol-2-yl)-1-(cyclopropylmethyl)-1H-pyrrolo[2,3-b]pyridin-6-yl)ethyl)-1-cyclopropyl-1H-pyrazole-4-carboxamide]
17 |  | 89.8 | C[C@@H](NS(=O)(=O)C1CC1)c1ccc2cc(-c3nc4cc(C(=O)N5C[C@H](N)[C@@H]6CC[C@H]5C6)cc(F)c4n3C3CC3)n(CC3CC3)c2n1 [Example 232, N-((R)-1-(2-(5-((1S,4R,5R)-4-amino-2-azabicyclo[3.2.1]octane-2-carbonyl)-1-cyclopropyl-7-fluoro-1H-benzo[d]imidazol-2-yl)-1-(cyclopropyImethyl)-1H-pyrrolo[2,3-b]pyridin-6-yl)ethyl)cyclopropanesulfonamide]
18 |  | 78.2 | C[C@@H](NC(=O)C12CC(C#N)(C1)C2)c1ccc2cc(-c3nc4cc(C(=O)N5C[C@H](N)[C@@H]6CC[C@H]5C6)cc(F)c4n3C3CC3)n(CC3CC3)c2n1 [Example 233, N-((R)-1-(2-(5-((1S,4R,5R)-4-amino-2-azabicyclo[3.2.1]octane-2-carbonyl)-1-cyclopropyl-7-fluoro-1H-benzo[d]imidazol-2-yl)-1-(cyclopropylmethyl)-1H-pyrrolo[2,3-b]pyridin-6-yl)ethyl)-3-cyanobicyclo[1.1.1]pentane-1-carboxamide]
19 | 166 |  | C[C@@H](NC(=O)N(C)C)c1ccc2cc(-c3nc4cc(C(=O)N[C@H]5CNCC[C@@H]5F)c(F)cc4n3C)n(CC3CC3)c2n1 [Example 239, 2-(1-(cyclopropylmethyl)-6-((R)-1-(3,3-dimethylureido)ethyl)-1H-pyrrolo[2,3-b]pyridin-2-yl)-6-fluoro-N-((3S,4S)-4-fluoropiperidin-3-yl)-1-methyl-1H-benzo[d]imidazole-5-carboxamide]
